Legend:
[1] = target: Human immunodeficiency virus type 1 protease (Human immunodeficiency virus 1) (UniProt Q72874); assay: In vivo for antiviral activity (ED90) against HIV-1 protease.; type: organism-based
[2] = target: Human immunodeficiency virus type 1 protease (Human immunodeficiency virus 1) (UniProt Q72874); assay: In vivo antiviral activity (IC50) against HIV-1 protease.; type: organism-based
[3] = Plasma Concentration after 120 min of oral administration to mice; type: ADME, organism-based; conditions: mouse
[4] = Plasma Concentration after 30 min of oral administration to mice; type: ADME, organism-based; conditions: mouse
[5] = Plasma Concentration after 90 min of oral administration to mice; type: ADME, organism-based; conditions: mouse
Mus musculus (mouse) = assay: Plasma Concentration after 60 min of oral administration to mice
[6] = Compound was tested in vivo for antiviral activity (C120/ED50) against HIV Protease.; type: functional

SMILES | ED90 [1] [nM] | ED50 [2] [nM] | concentration at 2 h [3] [nM] | concentration at 0.5 h [4] [nM] | concentration at 1.5 h [5] [nM] | concentration at 1 h (Mus musculus (mouse)) [nM] | C120/ED50 [6]
COC(=O)NC(C(=O)NN(CC1CCCCC1)C[C@H](O)[C@H](Cc1ccccc1)NC(=O)[C@H](CC(N)=O)NC(=O)c1ccc2ccccc2n1)C(C)C (some centres undefined) | 100 | 18 | – | – | – | – | –
CCOC(=O)NC(C(=O)NN(CC1CCCCC1)C[C@@H](O)[C@H](Cc1ccccc1)NC(=O)C(NC(=O)OCCOC)C(C)C)C(C)C (some centres undefined) | 100 | 24 | < 200 | < 200 | < 200 | < 200 | –
CC(C)(C)NC(=O)[C@@H]1C[C@@H]2CCCC[C@@H]2CN1C[C@@H](O)[C@H](Cc1ccccc1)NC(=O)[C@H](CC(N)=O)NC(=O)c1ccc2ccccc2n1 | 10 | 4.5 | – | – | – | – | –
CC(C)C(NC(=O)OCc1ccccc1)C(=O)NN(CC1CCCCC1)C[C@H](O)[C@H](Cc1ccccc1)NC(=O)[C@H](CC(N)=O)NC(=O)c1ccc2ccccc2n1 (some centres undefined) | 30 | 9.8 | 1100 | 300 | 800 | 200 | 73
CCOC(=O)NC(C(=O)NN(CC1CCCCC1)C[C@H](O)[C@H](Cc1ccccc1)NC(=O)[C@H](CC(N)=O)NC(=O)c1ccc2ccccc2n1)C(C)C (some centres undefined) | 30 | 9.4 | – | – | – | – | –
COCCOCCOC(=O)NC(C(=O)N[C@@H](Cc1ccccc1)[C@H](O)CN(CC1CCCCC1)NC(=O)C(NC(=O)OCCOCCOC)C(C)C)C(C)C (some centres undefined) | 10000 | 41 | – | – | – | – | –
C=CCOC(=O)NC(C(=O)N[C@@H](Cc1ccccc1)[C@H](O)CN(CC1CCCCC1)NC(=O)C(NC(=O)OCC=C)C(C)C)C(C)C (some centres undefined) | 1000 | 83 | 1000 | 800 | 900 | 1200 | 12
CCOC(=O)NC(C(=O)N[C@@H](Cc1ccccc1)[C@H](O)CN(CC1CCCCC1)NC(=O)C(NC(=O)OCC)C(C)C)C(C)C (some centres undefined) | 1000 | 55 | 8700 | 6700 | 7800 | 6700 | 158
COC(=O)NC(C(=O)NN(CC(C)C)C[C@H](O)[C@H](Cc1ccccc1)NC(=O)[C@H](CC(N)=O)NC(=O)c1ccc2ccccc2n1)C(C)C (some centres undefined) | 300 | 63 | – | – | – | – | –
COC(=O)NC(C(=O)NN(Cc1ccc(OC)cc1)C[C@H](O)[C@H](Cc1ccccc1)NC(=O)[C@H](CC(N)=O)NC(=O)c1ccc2ccccc2n1)C(C)C (some centres undefined) | 1000 | 118 | – | – | – | – | –
COCCOC(=O)NC(C(=O)N[C@@H](Cc1ccccc1)[C@H](O)CN(CC1CCCCC1)NC(=O)C(NC(=O)OCCOC)C(C)C)C(C)C (some centres undefined) | 300 | 79 | < 500 | 2700 | < 500 | 1100 | –
CCOC(=O)NC(C(=O)N[C@@H](Cc1ccccc1)[C@H](O)CN(CC1CCCCC1)NC(=O)C(NC(=O)OCCOC)C(C)C)C(C)C (some centres undefined) | 100 | 15 | 1500 | 1000 | 1000 | 2200 | 100
CC(C)CN(C[C@H](O)[C@H](Cc1ccccc1)NC(=O)[C@H](CC(N)=O)NC(=O)c1ccc2ccccc2n1)NC(=O)C(NC(=O)OCc1ccccc1)C(C)C (some centres undefined) | 30 | 12 | – | – | – | – | –
COc1ccc(CN(C[C@H](O)[C@H](Cc2ccccc2)NC(=O)[C@H](CC(N)=O)NC(=O)c2ccc3ccccc3n2)NC(=O)C(NC(=O)OCc2ccccc2)C(C)C)cc1 (some centres undefined) | 30 | 15 | – | – | – | – | –

Continued, in another order:

ED90 [1] [nM] | ED50 [2] [nM] | concentration at 2 h [3] [nM] | concentration at 0.5 h [4] [nM] | concentration at 1.5 h [5] [nM] | concentration at 1 h (Mus musculus (mouse)) [nM] | SMILES | C120/ED50 [6]
1000 | 68 | – | – | – | – | COC(=O)N[C@H](C(=O)N[C@@H](Cc1ccccc1)C(O)CN(Cc1ccc(C#N)cc1)NC(=O)[C@@H](NC(=O)OC)C(C)C)C(C)C (some centres undefined) | –
30 | 2.7 | 300 | < 200 | 400 | 600 | COC(=O)N[C@H](C(=O)N[C@@H](Cc1ccccc1)C(O)CN(CCC(C)C)NC(=O)[C@@H](NC(=O)OC)C(C)C)C(C)C (some centres undefined) | 111
1000 | 23 | – | – | – | – | COC(=O)N[C@H](C(=O)N[C@@H](Cc1ccccc1)C(O)CN(CC(C)C)NC(=O)[C@@H](NC(=O)OC)C(C)C)C(C)C (some centres undefined) | –
30 | 9 | < 200 | < 200 | < 200 | – | COC(=O)N[C@H](C(=O)N[C@@H](Cc1ccccc1)C(O)CN(Cc1ccc(OC)cc1)NC(=O)[C@@H](NC(=O)OC)C(C)C)C(C)C (some centres undefined) | –
1000 | 150 | – | – | – | – | COC(=O)N[C@H](C(=O)N[C@@H](Cc1ccccc1)C(O)CN(Cc1ccc(O)cc1)NC(=O)[C@@H](NC(=O)OC)C(C)C)C(C)C (some centres undefined) | –
100 | 28 | – | – | – | – | COC(=O)N[C@H](C(=O)N[C@@H](Cc1ccccc1)C(O)CN(Cc1ccc(OC)c(OC)c1OC)NC(=O)[C@@H](NC(=O)OC)C(C)C)C(C)C (some centres undefined) | –
1000 | 300 | – | – | – | – | COC(=O)N[C@H](C(=O)N[C@@H](Cc1ccccc1)[C@H](O)CN(CC1CCCCC1)NC(=O)[C@@H](NC(C)=O)C(C)C)C(C)C | –
100 | 17 | – | – | – | – | COC(=O)N[C@H](C(=O)N[C@@H](Cc1ccccc1)C(O)CN(Cc1ccc(C(F)(F)F)cc1)NC(=O)[C@@H](NC(=O)OC)C(C)C)C(C)C (some centres undefined) | –
100 | 14 | < 500 | < 500 | < 500 | < 500 | COCCOC(=O)NC(C(=O)NC(Cc1ccccc1)C(O)CN(CC1CCCCC1)NC(=O)C(NC(=O)OC)C(C)C)C(C)C (centres undefined) | –
1000 | 72 | 1400 | 3200 | 1200 | 400 | CCOC(=O)NC(C(=O)N[C@@H](Cc1ccccc1)[C@H](O)CN(CC1CCCCC1)NC(=O)C(NC(=O)OC)C(C)C)C(C)C (some centres undefined) | 19
100 | 17 | – | – | – | – | COC(=O)N[C@H](C(=O)N[C@@H](Cc1ccccc1)C(O)CN(Cc1cccs1)NC(=O)[C@@H](NC(=O)OC)C(C)C)C(C)C (some centres undefined) | –
30 | 6.2 | < 200 | < 200 | < 200 | < 200 | COC(=O)N[C@H](C(=O)N[C@@H](Cc1ccccc1)C(O)CN(Cc1ccc(C)cc1)NC(=O)[C@@H](NC(=O)OC)C(C)C)C(C)C (some centres undefined) | –
1000 | 49 | – | – | – | – | COC(=O)N[C@H](C(=O)N[C@@H](Cc1ccccc1)C(O)CN(Cc1ccc(F)cc1)NC(=O)[C@@H](NC(=O)OC)C(C)C)C(C)C (some centres undefined) | –
100 | 18 | – | – | – | – | COC(=O)N[C@H](C(=O)N[C@@H](Cc1ccccc1)C(O)CN(CC1CCCCC1)NC(=O)[C@@H](NC(=O)OC)C(C)C)C(C)C (some centres undefined) | –
100 | 29 | 6000 | 3800 | 5800 | 2200 | CCOC(=O)NC(C(=O)NN(CC1CCCCC1)C[C@@H](O)[C@H](Cc1ccccc1)NC(=O)C(NC(=O)OC)C(C)C)C(C)C (some centres undefined) | 207
100 | 28 | 3100 | 1000 | 3000 | 2800 | COCCOC(=O)NC(C(=O)NN(CC1CCCCC1)C[C@@H](O)[C@H](Cc1ccccc1)NC(=O)C(NC(=O)OC)C(C)C)C(C)C (some centres undefined) | 111

Reference: ChEMBL document CHEMBL1129270, “Aza-peptide analogs as potent human immunodeficiency virus type-1 protease inhibitors with oral bioavailability” (J Med Chem, 1996)
